Experiments:
HIV-1 protease [1] = target: T1, HIV-1 protease (Human immunodeficiency virus type 1 group M subtype B, UniProt P04585); test: biochemical; settings: for IC50: read-out: Fluorescence Assay IC50 (converted)
T1 construct: Purified HIV-1 protease was obtained as described below; made in house; host or cells: E. coli K12 L507/pHP10D (NRRL B-18560)
In short: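 Purified recombinant HIV-1 protease from E. coli preincubated 1 h at room temperature with compound in 20% aqueous DMSO, then biotin-peptide-FITC substrate added in MES-ALB buffer for 16 h at room temperature. Cleavage measured by avidin-bead capture, fluorescence ex 485/em 535 nm.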

HIV-1 protease [2] = target: T1, HIV-1 protease; test: Western Blot Analysis of HIV Protease Inhibition Assay (HIV-1 protease produced in E. coli, processing of gag polyprotein Pr48^gag); type: biochemical; settings: yield of p17 from gag polyprotein; 30 min preincubation at room temperature, one hour at 37° C.
Method: The compounds of the present invention were also tested for their ability to block HIV protease processing of Pr48^gag (a recombinant polyprotein containing p 17, p24 and p7).
A. Culture of E. coli K12 L507/DHP10D
Lyophils of E. coli K12 L507/pHP10D are obtained from the Northern Regional Research Laboratory, Peoria, Ill. 61604, under the accession number NRRL B-18560 (deposited Nov. 14, 1989). The lyophils are decanted into tubes containing 10 ml LB medium (10 g Bacto-tryptone, 5 g Bacto-yeast extract, and 10 g NaCl per liter; pH is adjusted to 7.5) and incubated at 32° C., overnight.
A small portion of the overnight culture was placed on LB-agar (LB medium with 15 g/l Bacto-agar) plates containing 12.5 μg/ml tetracycline in a manner so as to obtain a single colony isolate of E. coli K12 L507/pHP10D.The single colony obtained was inoculated into 10 ml of LB medium containing 12.5 μg/ml tetracycline and incubated overnight at 32° C. with vigorous shaking. The 10 ml overnight culture was inoculated into LB medium containing 12.5 μg/ml tetracycline and incubated at 32° C. with vigorous shaking until the culture reached mid-log phase.
B. Culture of E. coli K12 L507/pHGAG
Lyophils of E. coli K12 L507/pHGAG are obtained from the NRRL under the accession number NRRL B-18561 (deposited Nov. 14, 1989). A purified colony of E. coli K 12 L507/pHGAG was isolated, and used as an inoculum for a culture which was grown to mid-log phase in substantial accordance with the teaching of Step A above for E. Coli K12 L507/pHP10D.
C. Preparation of Protease and gag fractions
A culture of E. coli K12 L507/pHP10D was grown to mid-log phase at 32° C. in LB media containing 12.5 μg/ml tetracycline. The cultivation temperature was quickly elevated to 40° C. to induce gene expression, and the cells were allowed to grow for 2.5 hours at this temperature before the culture was quickly chilled on ice. The cells were centrifuged and the cell pellet was resuspended in 20 ml 50 mmol MES buffer (pH 6.0) containing 1 mmol EDTA, 1 mmol DTT, 1 mmol PMSF, and 10% glycerol (Buffer A). Cells were lysed by sonication using a Fischer Model 300 Dismembrator and a microtip probe. […] Enzymatic activity was measured by HPLC using the synthetic peptide SQNYPIV as described in Margolin et al., Biochem. Biophys. Res. Commun., 167, 554-560 (1990); the production of the pl peptide (SQNY) was measured.
Active fractions were pooled, made 1.2M in ammonium sulfate, and applied to a hexyl agarose column (2.0×18 cm) equilibrated in Buffer A containing 1.2M ammonium sulfate. The sample, in 125 ml (1.85 mg/ml), was loaded at a flow rate of 1 ml/min at 4° C. […] The column was then washed isocratically in Buffer A for 120 min. Active fractions were pooled, concentrated to 10 ml using an Amicon stirred cell with a YM-10 membrane, and applied at 1 ml/min to a MonoS cation exchange column (1.0×10 cm) equilibrated in Buffer A. After washing isocratically for 30 min, protease was eluted using a linear gradient of 0-0.45M NaCl in Buffer A over 40 min followed by an isocratic wash with Buffer A containing 0.45M NaCl over 30 min. Chromatography was performed at 25° C.
Pooled active fractions were concentrated to 200 ul using an Amicon stirred cell and a YM-10 membrane, and the protease was then applied to a Superose 6 size exclusion column equilibrated in Buffer A containing 0.1M NaCl. The column was washed isocratically in this buffer at a flow rate of 0.5 ml/min.
QAE-Sepharose, and hexyl agarose were purchased from Sigma Chemical Company. Superose 6 and MonoS were products of Pharmacia. Buffers and reagents were obtained from Sigma.
In an analogous manner, a culture of E. coli K12 507/pHGAG was grown to mid-log phase at 32° C. then shifted to 40° C. for about 4 to 5 hours. The culture was chilled on ice and centrifuged, then the pellet was resuspended in 8 ml lysis buffer containing 5 mg/ml lysozyme.

[3] = purified HIV-1 protease, MES-ALB buffer pH 5.5, 1 h preincubation, 16 h with substrate, room temperature, IC50 values for Examples 2-70 are standardized relative to Ex 1

| Molecule | IC50 (HIV-1 protease [1]; [3]) [nM] | IC50 (HIV-1 protease [2]) [nM] | IC50 (HIV-1 protease [1]) [nM] | Fluorescence Assay IC50 (HIV-1 protease [1]; [3]) [ng/mL] |
| --- | --- | --- | --- | --- |
| Cc1ccc(C[C@@H](O)[C@H](Cc2ccccc2)NC(=O)[C@H](CC(N)=O)NC(=O)c2ccc3ccccc3n2)c(C(=O)NC(C)(C)C)c1 [Example 2, [1S-(1R*, 4R*, 5S*)]-N-(1-(2-amino-2-oxoethyl)-2-oxo-3-aza-4-phenylmethyl-5-hydroxy-6-(2-(1-t-butylamino-1-oxomethyl)-4-methylphenyl)hexyl)-2-quinolinyl carboxamide] | 3.37 | 50 | – | – |
| Cc1cccc(C[C@@H](O)[C@H](Cc2ccccc2)NC(=O)[C@H](CC(N)=O)NC(=O)c2ccc3ccccc3n2)c1C(=O)NC(C)(C)C [Example 3, [1S-(1R*, 4R*, 5S*)]-N-(1-(2-amino-2-oxoethyl)-2-oxo-3-aza-4-phenylmethyl-5-hydroxy-6-(2-(1-t-butylamino-1-oxomethyl)-3-methylphenyl)hexyl)-2-quinolinyl carboxamide] | – | 60 | 28.9 | – |
| CC(C)(C)NC(=O)c1c(C[C@@H](O)[C@H](Cc2ccccc2)NC(=O)[C@H](CC(N)=O)NC(=O)c2ccc3ccccc3n2)ccc2ccccc12 [Example 4, [1S-(1R*, 4R*, 5S*)]-N-(1-(2-amino-2-oxoethyl)-2-oxo-3-aza-4-phenylmethyl-5-hydroxy-6-(1-(1-t-butylamino-1-oxomethyl)-2-naphthyl)hexyl)-2-quinolinyl carboxamide] | – | 2.7 | 4.4 | – |
| CCC(C)(C)NC(=O)c1ccccc1C[C@@H](O)[C@H](Cc1ccccc1)NC(=O)[C@H](CC(N)=O)NC(=O)c1ccc2ccccc2n1 [Example 8, [1S-(1R*, 4R*, 5S*)]-N-(1-(2-amino-2-oxoethyl)-2-oxo-3-aza-4-phenylmethyl-5-hydroxy-6-(2-(1-(1.1-dimethylpropylamino)-1-oxomethyl)phenyl)hexyl)-2-quinolinyl carboxamide] | – | 1.5 | 4.81 | – |
| CC(C)(C)NC(=O)c1ccccc1C[C@@H](O)[C@H](Cc1ccccc1)NC(=O)[C@H](CC(N)=O)NC(=O)c1nccc2ccccc12 [Example 13] | 13.1 | 9 | – | – |
| CC(C)(C)NC(=O)c1ccccc1C[C@@H](O)[C@H](Cc1ccccc1)NC(=O)[C@H](CC(N)=O)NC(=O)c1nc2ccccc2[nH]1 [Example 14, [1S-(1R*, 4R*, 5S*)]-N-(1-(2-amino-2-oxoethyl)-2-oxo-3-aza-4-phenylmethyl-5-hydroxy-6-(2-(1-t-butylamino-1-oxomethyl)phenyl)hexyl)-2-benzimidazolyl carboxamide] | – | 100 | 142 | – |
| CC(C)(C)NC(=O)c1ccccc1C[C@@H](O)[C@H](Cc1ccccc1)NC(=O)[C@H](CC(N)=O)NC(=O)COc1cccc2ccccc12 [Example 15, [2R-(2R*, 3S*, 6S*)]-N-t-butyl-2-(2-hydroxy-3-phenylmethyl-4,7-diaza-5,8,-dioxo-6-(2-amino-2-oxoethyl)-9-(naphthyloxy)nonyl)benzamide] | 4.23 | 1.6 | – | – |
| CC(C)[C@H](NC(=O)c1ccc2ccccc2n1)C(=O)N[C@@H](Cc1ccccc1)[C@H](O)Cc1ccccc1C(=O)NC(C)(C)C [Example 16, [1S-(1R*, 4R*, 5S*)]-N-(1-(2-propyl)-2-oxo-3-aza-4-phenylmethyl-5-hydroxy-6-(2-(1-t-butylamino-1-oxomethyl)phenyl)hexyl)-2-quinolinyl carboxamide] | – | 1 | 57.2 | – |
| [1S-(1R*, 4R*, 5S*)]-N-(1-(2-amino-2-oxoethyl)-2-oxo-3-aza-4-phenylmethyl-5-hydroxy-6-(2- (1-t-butylamino-1-oxomethyl)phenyl)hexyl)-2(6, 7, 8, 9-tetrahydronaphthyl) carboxamide [Example 33] | – | – | – | 1.4 |

Now from value to molecule:

| IC50 (HIV-1 protease [1]; [3]) [nM] | IC50 (HIV-1 protease [2]) [nM] | IC50 (HIV-1 protease [1]) [nM] | Fluorescence Assay IC50 (HIV-1 protease [1]; [3]) [ng/mL] | Molecule |
| --- | --- | --- | --- | --- |
| – | 0.5 | 1.9 | – | CC(C)(C)NC(=O)c1ccccc1C[C@@H](O)[C@H](Cc1ccccc1)NC(=O)[C@H](Cc1cnc[nH]1)NC(=O)c1ccc2ccccc2n1 [Example 17, [1S-(1R*, 4R*. 5S*)]-N-(1-(4-imidazolylmethyl)-2-oxo-3-aza-4-phenylmethyl-5-hydroxy-6-(2-(1-t-butylamino-1-oxomethyl)phenyl)hexyl)-2-quinolinyl carboxamide] |
| – | – | 0.23 | – | CC(C)c1ccc(C(=O)NC(C)(C)C)c(C[C@@H](O)[C@H](Cc2ccccc2)NC(=O)[C@H](CC(N)=O)NC(=O)c2ccc3ccccc3n2)c1 [Example 68, [1S-(1R*, 4R*, 5S,)]-N-(1-(2-amino-2-oxoethyl)-2-oxo-3-aza-4-phenylmethyl-5-hydroxy-6-(2-(1-t-butylamino-1-oxomethyl)-5-isopropylphenyl)hexyl)-2-quinolinyl carboxamide] |
| – | – | 1.2 | – | CC1(NC(=O)c2ccccc2C[C@@H](O)[C@H](Cc2ccccc2)NC(=O)[C@H](CC(N)=O)NC(=O)c2ccc3ccccc3n2)CCCC1 [Example 69, [1S-(1R*, 4R*, 5S*) ]-N-(1-(2-amino-2-oxoethyl) -2-oxo-3-aza-4-phenylmethyl-5-hydroxy-6-(2-(1-(1-methylcyclopent-1-yl)amino-1-oxomethyl)phenyl)hexyl)-2-quinolinyl carboxamide] |
| – | – | 0.785 | – | CC(C)(C)NC(=O)c1ccccc1C[C@@H](O)[C@H](Cc1ccccc1)NC(=O)[C@H](CC(=O)NCc1c[nH]c2ccccc12)NC(=O)c1ccc2ccccc2n1 [Example 70, [1S-(1R*, 4R*, 5*)]-N-(1-(2-(N-indol-3-ylmethyl)amino)-2-oxoethyl)-2-oxo-3-aza-4-phenylmethyl-5-hydroxy-6-(2-(1-t-butylamino-1-oxomethyl)phenyl)hexyl)-2-quinolinyl carboxamide] |
